Results from publication PMC11091220, “Metabolism-driven in vitro/in vivo disconnect of an oral ERɑ VHL-PROTAC” (Communications Biology, 2024).
Values joined by “and” are separate entries in the source; they are usually repeats but may differ in a detail not shown here. Equal entries are not always repeated.

Key:
ERα [1] = biological target: T1, ERα (Homo sapiens, UniProt P03372); test: ERα degradation in a panel of ER+ cell lines (western blot); format: cell-based; conditions: 100 nM; for ERa degradation vs vehicle: 48 h, listed as AZ'6421
T1 construct: endogenous in cells; host or cells: MCF7 (also MCF7 engineered to express Cas9)
T1 sequence (P03372 1-595): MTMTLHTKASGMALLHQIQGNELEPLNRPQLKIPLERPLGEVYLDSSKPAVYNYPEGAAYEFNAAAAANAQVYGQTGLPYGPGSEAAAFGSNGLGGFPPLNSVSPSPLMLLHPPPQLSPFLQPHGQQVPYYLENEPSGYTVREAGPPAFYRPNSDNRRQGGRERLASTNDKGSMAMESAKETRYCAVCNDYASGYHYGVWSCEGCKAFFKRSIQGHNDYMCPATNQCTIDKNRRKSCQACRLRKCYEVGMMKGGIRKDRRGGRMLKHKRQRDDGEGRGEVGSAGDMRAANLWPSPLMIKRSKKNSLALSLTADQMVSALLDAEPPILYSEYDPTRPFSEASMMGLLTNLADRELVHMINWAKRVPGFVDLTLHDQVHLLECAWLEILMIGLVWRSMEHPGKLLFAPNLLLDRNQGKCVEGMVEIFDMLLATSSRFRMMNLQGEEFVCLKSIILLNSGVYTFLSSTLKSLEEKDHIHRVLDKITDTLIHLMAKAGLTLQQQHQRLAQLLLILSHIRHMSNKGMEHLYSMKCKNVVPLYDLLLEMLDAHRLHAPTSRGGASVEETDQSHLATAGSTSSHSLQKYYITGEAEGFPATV
Method: Fig. 3 AZ’6421 potently degrades ERα and inhibits ER-regulated gene transcription. a MCF7 cells were treated with increasing concentrations of AZ’6421 for 24 h and probed for ERα by immunoblot analysis. b SILAC experiment to measure ERα peptide turnover in MCF7 cells. Cells cultured in the presence of heavy L-arginine were switched at time T = 0 to media containing light L-arginine plus 0.1% DMSO, 1 µM AZ’6421, or 1 µM fulvestrant. Cells were collected at the indicated timepoints and the proportion of heavy-labelled ERα assessed by mass spectrometry. % ERα heavy peptide is plotted relative to DMSO control. Data points show the mean of 3 independent experiments with points in bold representing the mean. c A panel of ER+ cells were treated with 100 nM AZ’6421 for 48 h. ERα was normalised to vinculin and expressed as % of vehicle control. Data points represent an independent experiment for each cell line, error bars indicate ± s.e.m. d Heatmap showing changes in mRNA expression of a panel of ER-regulated genes. MCF7 and CAMA1 cells were stimulated with 0.1 nM estradiol in the presence of DMSO, 100 nM fulvestrant (Fulv), 100 nM AZD9833, or 100 nM AZ’6421 for 24 hours. Data points show 3 independent experiments. e Growth inhibition curves for MCF7 and CAMA1 cells, treated with increasing concentrations of AZ’6421 for 6 days. Data points show 4–5 independent experiments, bold points represent the mean. TEXT PRINTED IN THE PICTURE: (c) no label printed: Mean % ER Degradation, MCF-7: 96; Mean % ER Degradation, CAMA-1: 92; Mean % ER Degradation, ZR75-1: 95; Mean % ER Degradation, MDA-MB-134: 99; Mean % ER Degradation, BT474: 83; Mean % ER Degradation, HCC1428: 92; Mean % ER Degradation, T47D: 87 DOUBTS OF THE COPYIST ABOUT THIS PICTURE: Panel c prints no substance label for the Mean % ER Degradation values, so the substance is left empty.
Cells were seeded into 12-well tissue culture-treated plates at 0.5 x 10^6 cells/well in phenol red-free RPMI containing 5% (v/v) charcoal-stripped FBS (F6765, Sigma) and left to adhere overnight. In experiments to detect agonism or for SILAC experiments, FBS was double stripped using activated charcoal. […] Expression levels of proteins were determined by standard western blotting techniques (BioRad 4%-12% Bis-Tris gels). Antibodies were diluted in 5% milk-PBS-Tween and protein levels were detected using Pierce WestDura chemiluminescent reagents followed by visualisation and quantification on a Syngene ChemiGenius Imager. Where blots were quantified, protein levels were normalised to beta-actin or vinculin control and expressed as % of vehicle control.

[2] = test system: CTC174 patient-derived xenograft (PDX) model; test: Efficacy study in CTC174 PDX model, tumour growth; format: in vivo, mouse
Method: CTC174 (ER/PR positive, HER2-negative patient-derived xenograft (PDX) model) studies were conducted following implantation of a tumour fragment in female NSG mice; established tumours were removed from donor mice and dissected into 3x3x3 mm pieces in RPMI 1640 media. Female NOD scid gamma (NSG) mice were anesthetized using 2% isoflurane, a small incision was made through the skin, 0.5 cm dorsally to the third nipple, and a tumour fragment was inserted between the skin layer and the third mammary fat pad. The skin was closed with surgical glue (VetBond, 3 M).
Mice were randomised into groups of 8-10 once tumour sizes reached approximately 0.2 cm^3. AZ’6421 was dosed orally at 30 mg/kg QD or 100 mg/kg BID using EF3, alongside a vehicle control. AZD9833 was dosed at 10 mg/kg PO, QD. Tumours were measured twice per week and changes in tumour volume and growth inhibition were determined by bilateral Vernier caliper measurement (length x width), where length was taken to be the longest diameter across the tumour and width the corresponding perpendicular. Tumour volume was calculated using the formula (length x width) x √ (length x width) x π/6). Tumour growth inhibition from the start of the study to the final day of tumour measurement was assessed by comparison of the geometric mean change in tumour volume for the control and treated groups. Tumour regression was calculated as the percentage reduction in tumour volume from baseline (pre-treatment) value (where relative tumour volume [RTV] = geometric mean RTV): %regression=(1−RTV)×100% Statistical significance was evaluated using a one-tailed t-test compared to vehicle control at the day of final tumour measures.

ERα [3] = biological target: T1, ERα; test: Western blot analysis of ERα in MCF7 cells (dose response, MG132, VHL ligand and cpd 8 competition); format: cell-based; conditions: Figure 6f, read-out: ERa % of control

For `Cc1ncsc1-c1ccc(CNC(=O)[C@@H]2C[C@@H](O)CN2C(=O)[C@@H](NC(=O)COCCCOCCCOc2cc(F)c([C@@H]3c4[nH]c5ccccc5c4C[C@@H](C)N3CC(C)(C)F)c(F)c2)C(C)(C)C)cc1` [Compound 5], the “ERα protein abundance, % of the vehicle” value (ERα [1]; all cell lines tested) was “less than 20%”, the “ERa degradation vs vehicle” value (ERα [1]; BT474) was 4.37 and 5.82 and the “ERa degradation vs vehicle” value (ERα [1]; HCC1428) was 9.04 and 6.44. The “ERa degradation vs vehicle” value (ERα [1]; MDA-MB-134) was 1.1 and 1.64, the “effect on tumour growth” value ([2]; 30 mg/kg QD, CTC174 PDX) was “no significant effect on tumour growth” and the “individual tumour volume relative to day 0” value ([2]; 30mg/kg, day 0) was 1. The “individual tumour volume relative to day 0” value ([2]; 30mg/kg, day 3, listed as AZ'6421) was 0.7122 and 1.194, the “individual tumour volume relative to day 0” value ([2]; 30mg/kg, day 24, listed as AZ'6421) was 0.687 and 1.553 and 0.9229 and 3.138 and 3.998 and 5.933 and 2.313 and 1.402 and the “individual tumour volume relative to day 0” value ([2]; 30mg/kg, day 28, listed as AZ'6421) was 0.8313 and 2.512 and 0.8896 and 2.922 and 2.315 and 6.135 and 3.14 and 1.905. The “individual tumour volume relative to day 0” value ([2]; 30mg/kg, day 31, listed as AZ'6421) was 0.7668 and 3.025 and 1.034 and 3.595 and 3.598 and 7.563 and 4.273 and 1.656, the “individual tumour volume relative to day 0” value ([2]; 30mg/kg, day 32, listed as AZ'6421) was 0.5475 and 2.09 and 0.9038 and 4.599 and 4.337 and 8.487 and 4.5171 and 1.317 and the “individual tumour volume relative to day 0” value ([2]; 30mg/kg, day 35, listed as AZ'6421) was 0.7044 and 2.34 and 1.039 and 4.934 and 5.34 and 5.3436 and 1.76. For the same compound, the tumour growth inhibition ([2]; 100 mg/kg BID, CTC174 PDX) was 86%, the “individual tumour volume relative to day 0” value ([2]; 100mg/kg BID, day 0) was 1 and the “individual tumour volume relative to day 0” value ([2]; 100mg/kg BID, day 3, listed as AZ'6421) was 0.8229 and 1.103 and 0.6717 and 0.9409 and 1.283 and 1.22 and 0.8606. For the same compound, the “individual tumour volume relative to day 0” value ([2]; 100mg/kg BID, day 24, listed as AZ'6421) was 0.798 and 1.29 and 1.172 and 1.123 and 1.125 and 1.792 and 0.9657 and 0.7632, the “individual tumour volume relative to day 0” value ([2]; 100mg/kg BID, day 28, listed as AZ'6421) was 1.185 and 1.364 and 1.661 and 0.8768 and 1.158 and 1.79 and 0.955 and the “individual tumour volume relative to day 0” value ([2]; 100mg/kg BID, day 31, listed as AZ'6421) was 1.384 and 1.261 and 1.388 and 0.978 and 1.011 and 2 and 1.056. The “individual tumour volume relative to day 0” value ([2]; 100mg/kg BID, day 32, listed as AZ'6421) was 1.118 and 1.021 and 1.453 and 0.5782 and 0.607 and 1.779 and 0.9427 and the “individual tumour volume relative to day 0” value ([2]; 100mg/kg BID, day 35, listed as AZ'6421) was 0.7796 and 0.7051 and 1.086 and 0.6654 and 0.8654 and 1.332 and 0.777.

Work on `C[C@@H]1Cc2c([nH]c3ccccc23)[C@@H](c2c(F)cc(OCCC(=O)O)cc2F)N1CC(C)(C)F` [Compound 8] yielded a remaining activity at 0.001 µM (ERα [3]; 1 nM) of 51.3%, a remaining activity at 0.01 µM (ERα [3]; 10 nM) of 51.6% and a remaining activity at 0.03 µM (ERα [3]; 30 nM) of 47.7%. The remaining activity at 0.1 µM (ERα [3]; 100 nM) was 29.2%, the remaining activity at 0.3 µM (ERα [3]; 300 nM) was 46.3% and the remaining activity at 1 µM (ERα [3]; 1000 nM) was 42%.
